Results reported in US20080200531A1, “CDKI pathway inhibitors as inhibitors of tumor cell growth” (priority 2006, published 2008).

What was measured:
[1] = system: p21-induced CMV-GFP expression (CDKI pathway); test: CMV-GFP reporter assay for p21-induced transcription (HTS) in HT1080 p21-9 derived reporter cell line; type: cell-based, human; settings: libraries screened at 20 μM
Excerpt: As described in a co-pending patent application PCT/US06/0 1046, we have developed a high-throughput screening (HTS) procedure for compounds inhibiting the CDKI pathway. This procedure utilizes a highly sensitive reporter cell line that was generated by infecting HT1080 p21-9 cells, a derivative of HT1080 fibrosarcoma cells that express p21 from a promoter induced by a physiologically neutral β-galactoside IPTG (isopropyl-β-thio-galactoside) with a lentiviral vector that expresses Green Fluorescent Protein (GFP) from the CDKI-inducible cytomegalovirus (CMV) promoter, followed by subcloning of GFP positive cells and monitoring the induction of GFP expression by IPTG. A cell line showing approximately 10-fold increase in GFP upon the addition of IPTG was used for HTS in a 96-well format.
This reporter line was used to screen two diversified small-molecule libraries developed by ChemBridge Corp., Microformat 04 and DiverSet, each comprising 50,000 compounds. These diversified libraries were rationally chosen by ChemBridge by quantifying pharmacophores in a collection of >500,000 drug-like molecules, using a version of Chem-X software to maximize the pharmacophore diversity. The Microformat 04 collection was designed to complement the chemical space covered by the older DiverSet library. ChemBridge libraries have been successfully used by numerous industrial and academic researchers, in a variety of cell-based and cell-free assays. The ChemBridge libraries were screened at 20 μM concentration, a conventional concentration for cell-based screening of these libraries. 62 of 100,000 ChemBridge compounds were identified by HTS and verified as inhibiting the induction of CMV-GFP expression in response to p21. This low hit rate (0.06%) indicates a high selectivity of our assay.
In this experiment, HT1080 p21-9 cells that express firefly luciferase from a CDKI-responsive promoter of cellular NK4 gene were cultured with IPTG for two days, which is sufficient for near-maximal induction of NK4 (Poole et al., supra).

[2] = system: HT1080-derived reporter cell line; test: Growth inhibition and cell death in HT1080-derived reporter cell line; type: cell-based, human; settings: cell death detected microscopically by cell detachment
Excerpt: The combination of p21 and SNX9-class compounds leads to both G1 and G2/M arrest, at the levels expected for the combined effects of p21 and SNX9 (FIG. 6).

[3] = system: NFκB p50 and p65 subunits; test: TransAM NFκB p65 and p50 Chemi Transcription Factor Assay (oligonucleotide binding); type: cell-based; settings: TNFα-induced or basal
Excerpt: We also tested if these compounds could act as the inhibitors of NFκB, by measuring cellular levels of p50 or p65 subunits binding oligonucleotides containing NFκB consensus binding site, using ACTIVE MOTIF TransAM™ NFκB p65 Chemi and NFκB p50 Chemi Transcription Factor Assay Kits.

[4] = system: WI-38 and BJ-EN fibroblasts vs HT1080, HCT116, C33-A, Calu-6; test: 3-day growth inhibition assay (Hoechst 33342), normal fibroblasts vs tumor cell lines; settings: 3-day assay, WI-38, BJ-EN vs HT1080, HCT116, C33-A
Experimental: (§1) The assays were carried out in 96-well plates, in triplicates; the plated cell numbers for each cell line were determined in preliminary experiments to assure exponential growth over the 3-day period of the assay. The cell numbers were measured by staining DNA of attached cells with Hoechst 33342, and the results for each dose were expressed as the decrease in cell number relative to untreated cells. For some of the tumor/normal cell line combinations, the assays were repeated using CellTiter-Glo viability assay (Promega), with the same results.

[5] = system: HMEC primary cultures, MCF-7 and MDA231; test: 3-day growth inhibition assay (Hoechst 33342), normal mammary epithelial cells vs breast carcinoma lines; settings: 3-day assay; HMEC vs MCF-7 and MDA231
Experimental: as §1

[6] = system: isogenic human fibroblast cell lines (untransformed, partially transformed, fully transformed); test: Dose-dependent growth inhibition of three isogenic human fibroblast cell lines with increasing neoplastic transformation; type: cell-based; settings: 3-day assay, Hoechst 33342
Excerpt: To determine if tumor-specific growth inhibitory activity of SNX9 class compounds could be due to the inhibition of a specific CDK, we took advantage of the availability of selective inhibitors for some of the CDK proteins. Among these enzymes, CDK1, CDK2 and CDK4/CDK6 (the latter two CDKs are closely related to each other and interact with the same class of cyclins), have been used as targets for developing specific inhibitors, with potential anticancer activity. In contrast, CDK3 has not been used as a target for developing selective inhibitors. We have obtained commercially available selective inhibitors of CDK1 (CGP74514A) (Calbiochem Cat. No. 217696), CDK2 (CVT-313) (Calbiochem Cat. No. 238803), and CDK4 (NSC 625987) (Calbiochem Cat. No. 219477), and tested them, along with a broad-specificity CDK inhibitor flavopiridol, and with SNX14, SNX9 and SNX9-1, for growth inhibition of normal and transformed fibroblasts.
This analysis was done using a set of three isogenic human fibroblast cell lines with increasing degrees of neoplastic transformation (immortal but untransformed, partially transformed, and fully transformed).

Row | SMILES | tumor selectivity of growth inhibition, tumor cells vs normal fibroblasts [4] | tumor selectivity of growth inhibition, normal vs transformed mammary cells [5] | selectivity of growth inhibition for transformed cell lines relative to immortal but untransformed fibroblasts [6] | further results
1 | NCCc1c[nH]c2ccc(Cl)cc12 [Compound 3] | – | – | – | anti-CDKI pathway activity in the reporter assay (induction of CMV-GFP expression in response to p21) [1]: showed anti-CDKI pathway activity in the reporter assay; growth inhibition of the HT1080-derived reporter cell line [2]: associated with the induction of both cell death (as detected microscopically by cell detachment) and cell cycle arrest
2 | COc1cc(Cl)c2[nH]cc(CCN)c2c1 [Compound 4] | – | – | – | anti-CDKI pathway activity in the reporter assay (induction of CMV-GFP expression in response to p21) [1]: showed anti-CDKI pathway activity in the reporter assay; growth inhibition of the HT1080-derived reporter cell line [2]: associated with the induction of both cell death (as detected microscopically by cell detachment) and cell cycle arrest
3 | Cc1ccc(S(=O)(=O)N[C@@H](Cc2ccccc2)C(=O)CCl)cc1 [TPCK, reference compound] | – | – | – | NFκB activity (p50 or p65 binding to NFκB consensus oligonucleotide) [3]: completely blocks NFκB activity
4 | CC[C@@]1(O)C(=O)OCc2c1cc1n(c2=O)Cc2cc3ccccc3nc2-1 [camptothecin] | showed no selectivity | no discrimination between normal and transformed mammary cells | – | –
5 | COc1cccc2c1C(=O)c1c(O)c3c(c(O)c1C2=O)C[C@@](O)(C(=O)CO)C[C@@H]3O[C@H]1C[C@H](N)[C@H](O)[C@H](C)O1 [doxorubicin] | showed no selectivity | no discrimination between normal and transformed mammary cells | – | –
6 | CN1CC[C@H](c2c(O)cc(O)c3c(=O)cc(-c4ccccc4Cl)oc23)[C@H](O)C1 [flavopiridol] | – | – | no transformed cell selectivity whatsoever | –
7 | CCn1cnc2c(Nc3cccc(Cl)c3)nc(N[C@@H]3CCCC[C@@H]3N)nc21 [selective CDK1 inhibitor, CGP74514A] | – | – | Much lower selectivity for transformed cells | –
8 | COc1ccc(CNc2nc(N(CCO)CCO)nc3c2ncn3C(C)C)cc1 [selective inhibitor of CDK2, CVT-313] | – | – | no transformed cell selectivity whatsoever | –
9 | COc1ccc(OC)c2c(=S)c3ccccc3[nH]c12 [selective inhibitor of CDK4, NSC 625987] | – | – | no transformed cell selectivity whatsoever | –
10 | CC(=O)O[C@H]1C(=O)[C@@]2(C)[C@H]([C@H](OC(=O)c3ccccc3)[C@]3(O)C[C@H](OC(=O)[C@H](O)[C@@H](NC(=O)c4ccccc4)c4ccccc4)C(C)=C1C3(C)C)[C@]1(OC(C)=O)CO[C@@H]1C[C@@H]2O [taxol, paclitaxel] | inhibited all the tumor cells to a greater extent than normal fibroblasts | clear tumor selectivity | – | –
